Measured values as given in patent publication US11731986B2 (Sanford Burnham Prebys Medical Discovery Institute, priority 2017, dated 2023).

Molecular target: T1, human LMPTP-A (Homo sapiens, UniProt P24666)
T1 sequence (P24666 1-158): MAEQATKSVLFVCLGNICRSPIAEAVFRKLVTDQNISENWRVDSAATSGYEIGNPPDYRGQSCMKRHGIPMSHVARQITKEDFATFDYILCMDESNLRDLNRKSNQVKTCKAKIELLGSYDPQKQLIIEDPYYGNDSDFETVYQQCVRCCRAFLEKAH
Assay: Enzyme Assay of Inhibition of LMPTP-A (phosphatase assay, OMFP or pNPP substrate)
Assay type: biochemical
Details: Bis-Tris pH 6.0, 37° C.
Procedure: Phosphatase assays were performed in buffer containing 50 mM Bis-Tris, pH 6.0, 1 mM DTT and 0.01% Triton X-100 at 37° C. For assays conducted with 3-O-methylfluorescein phosphate (OMFP) as substrate, fluorescence was monitored continuously at λex=485 and λem=525 nm. For assays conducted with para-nitrophenylphosphate (pNPP) as substrate, the reaction was stopped by addition of 2× reaction volume of 1 M NaOH, and absorbance was measured at 405 nm. IC50 values of compounds of Formula (I), (II), (III), or (IV) were determined from plots of inhibitor concentration versus percentage of enzyme activity. For inhibitor selectivity assays, each PTP was incubated with either 0.4 mM OMFP or 5 mM pNPP in the presence of 40 μM compound or DMSO. […] For the inhibitor reversibility assay, 50 nM human LMPTP-A was pre-incubated with 10 μM of compound of Formula (I), (II), (III), or (IV) or DMSO for 5 min. The enzyme was diluted 100× in phosphatase assay buffer containing 0.4 mM OMFP and fluorescence was measured at the indicated time points.

Structure (SMILES)	IC50 [nM]
CN1CCN(C(=O)c2cc3cc(-c4cc(NCc5ccc(CN6CCCCC6)cc5)c5cnccc5n4)ccc3n2C)CC1 [(1-methyl-5-(4-(4-(piperidin-1-ylmethyl)benzylamino)-1,6-naphthyridin-2-yl)-1H-indol-2-yl)(4-methylpiperazin-1-yl)methanone]	≤ 1000
CCN1CCN(C(=O)c2cc3ccc(-c4cc(NCCCN5CCCCC5)c5cnccc5n4)cc3[nH]2)CC1 [(4-Ethylpiperazin-1-yl)(6-(4-(3-(piperidin-1-yl)propylamino)-1,6-naphthyridin-2-yl)-1H-indol-2-yl)methanone]	≤ 1000
CCN1CCN(C(=O)c2nc3cc(-c4cc(NCCCN5CCCCC5)c5cnccc5n4)ccc3[nH]2)CC1 [(4-ethylpiperazin-1-yl)(5-(4-((3-(piperidin-1-yl)propyl)amino)-1,6-naphthyridin-2-yl)-1H-benzo[d]imidazol-2-yl)methanone]	≤ 1000
CCN1CCN(C(=O)c2cc3ccc(-c4cc(NCCCN5CCCCC5)c5cnccc5n4)cc3s2)CC1 [(4-ethylpiperazin-1-yl)(6-(4-(3-(piperidin-1-yl)propylamino)-1,6-naphthyridin-2-yl)benzo[b]thiophen-2-yl)methanone]	1000 to 20000
O=C(O)/C=C/c1ccc(-c2cc(NCCCN3CCCCC3)c3cnccc3n2)s1 [(E)-3-(5-(4-(3-(Piperidin-1-yl)propylamino)-1,6-naphthyridin-2-yl)thiophen-2-yl)acrylic acid]	1000 to 20000
CCN(CC)C(=O)/C=C/c1ccc(-c2cc(NCCCN3CCCCC3)c3cnccc3n2)o1 [(E)-N,N-Diethyl-3-(5-(4-((3-(piperidin-1-yl)propyl)amino)-1,6-naphthyridin-2-yl)furan-2-yl)acrylamide]	1000 to 20000
CN1CCC(NC(=O)/C=C/c2ccc(-c3cc(NCCCN4CCCCC4)c4cnccc4n3)cc2)CC1 [(E)-N-(1-Methylpiperidin-4-yl)-3-(4-(4-(3-(piperidin-1-yl)propylamino)-1,6-naphthyridin-2-yl)phenyl)acrylamide]	≤ 1000
CN1CCC(CCNC(=O)/C=C/c2ccc(-c3cc(NCCCN4CCCCC4)c4cnccc4n3)cc2)CC1 [(E)-N-(2-(1-Methylpiperidin-4-yl)ethyl)-3-(4-(4-(3-(piperidin-1-yl)propylamino)-1,6-naphthyridin-2-yl)phenyl)acrylamide]	≤ 1000
CN1CCC(CCNC(=O)/C=C/c2ccc(-c3cc(NCCCN4CCCCC4)c4cnccc4n3)o2)CC1 [(E)-N-(2-(1-Methylpiperidin-4-yl)ethyl)-3-(5-(4-((3-(piperidin-1-yl)propyl)amino)-1,6-naphthyridin-2-yl)furan-2-yl)acrylamide]	1000 to 20000
CN(C)CCNC(=O)/C=C/c1ccc(-c2cc(NCCCN3CCCCC3)c3cnccc3n2)cc1 [(E)-N-(2-(Dimethylamino)ethyl)-3-(4-(4-(3-(piperidin-1-yl)propylamino)-1,6-naphthyridin-2-yl)phenyl)acrylamide]	≤ 1000
CCN1CCC(CNC(=O)/C=C/c2ccc(-c3cc(NCCCN4CCCCC4)c4cnccc4n3)cc2)CC1 [(E)-N-((1-Ethylpiperidin-4-yl)methyl)-3-(4-(4-(3-(piperidin-1-yl)propylamino)-1,6-naphthyridin-2-yl)phenyl)acrylamide]	1000 to 20000
CN1CCC(CNC(=O)/C=C/c2ccc(-c3cc(NCCCN4CCCCC4)c4cnccc4n3)cc2)CC1 [(E)-N-((1-Methylpiperidin-4-yl)methyl)-3-(4-(4-(3-(piperidin-1-yl)propylamino)-1,6-naphthyridin-2-yl)phenyl)acrylamide]	≤ 1000
CN1CCC(N/C(=N\O)c2ccc(-c3cc(NCCCN4CCCCC4)c4cncc(Cl)c4n3)cc2)CC1 [(Z)-4-(8-chloro-4-((3-(piperidin-1-yl)propyl)amino)-1,6-naphthyridin-2-yl)-N′-hydroxy-N-(1-methylpiperidin-4-yl)benzimidamide]	≥ 20000
CO/N=C(\NC1CCN(C)CC1)c1ccc(-c2cc(NCCCN3CCCCC3)c3cnccc3n2)cc1 [(Z)-N′-methoxy-N-(1-methylpiperidin-4-yl)-4-(4-(3-(piperidin-1-yl)propylamino)-1,6-naphthyridin-2-yl)benzimidamide]	≤ 1000
CCN(CC)C(=O)c1ccc(-c2cc(NCCCN3CCCCC3)c3cnccc3n2)c(C(N)=O)c1 [N1,N1-diethyl-4-(4-((3-(piperidin-1-yl)propyl)amino)-1,6-naphthyridin-2-yl)isophthalamide]	1000 to 20000
CCN(CC)C(=O)CCc1ccc(-c2cc(NC3CCN(C)CC3)c3cnccc3n2)cc1 [N,N-Diethyl-3-(4-(4-(1-methylpiperidin-4-ylamino)-1,6-naphthyridin-2-yl)phenyl)propanamide]	≤ 1000

The remaining lines, values ahead:

IC50 [nM]	Structure (SMILES)
≥ 20000	CCN1CCN(C(=O)c2nc3cc(-c4cc(Nc5ccc(CN6CCCC6)cc5)c5cnccc5n4)ccc3[nH]2)CC1 [(4-ethylpiperazin-1-yl)(5-(4-((4-(pyrrolidin-1-ylmethyl)phenyl)amino)-1,6-naphthyridin-2-yl)-1H-benzo[d]imidazol-2-yl)methanone]
≤ 1000	CN1CCN(C(=O)c2cc3ccc(-c4cc(NCCCN5CCCCC5)c5cnccc5n4)cc3s2)CC1 [(4-methylpiperazin-1-yl)(6-(4-(3-(piperidin-1-yl)propylamino)-1,6-naphthyridin-2-yl)benzo[b]thiophen-2-yl)methanone]
1000 to 20000	CCN(CC)C(=O)/C=C/c1ccc(-c2cc(Nc3ccc(CN4CCCC4)cc3)c3cnccc3n2)cc1 [(E)-N,N-Diethyl-3-(4-(4-((4-(pyrrolidin-1-ylmethyl)phenyl)amino)-1,6-naphthyridin-2-yl)phenyl)acrylamide]
≥ 20000	CCN(CC)C(=O)/C=C/c1ccc(-c2cc(NCCCN3CCCCC3)c3cnccc3n2)s1 [(E)-N,N-Diethyl-3-(5-(4-(3-(piperidin-1-yl)propylamino)-1,6-naphthyridin-2-yl)thiophen-2-yl)acrylamide]
1000 to 20000	CN1CCC(NC(=O)/C=C/c2ccc(-c3cc(NCCCN4CCCCC4)c4cnccc4n3)s2)CC1 [(E)-N-(1-Methylpiperidin-4-yl)-3-(5-(4-(3-(piperidin-1-yl)propylamino)-1,6-naphthyridin-2-yl)thiophen-2-yl)acrylamide]
≥ 20000	CN1CCC(NC(=O)/C=C/c2ccc(-c3cc(NCCCN4CCCCC4)c4cnccc4n3)o2)CC1 [(E)-N-(1-Methylpiperidin-4-yl)-3-(5-(4-((3-(piperidin-1-yl)propyl)amino)-1,6-naphthyridin-2-yl)furan-2-yl)acrylamide]
≤ 1000	CN1CCCN(CCNC(=O)/C=C/c2ccc(-c3cc(NCCCN4CCCCC4)c4cnccc4n3)cc2)CC1 [(E)-N-(2-(4-Methyl-1,4-diazepan-1-yl)ethyl)-3-(4-(4-(3-(piperidin-1-yl)propylamino)-1,6-naphthyridin-2-yl)phenyl)acrylamide]
≤ 1000	O=C(/C=C/c1ccc(-c2cc(NCCCN3CCCCC3)c3cnccc3n2)cc1)NCCCN1CCCCC1 [(E)-N-(3-(Piperidin-1-yl)propyl)-3-(4-(4-(3-(piperidin-1-yl)propylamino)-1,6-naphthyridin-2-yl)phenyl)acrylamide]
1000 to 20000	O=C(c1nc2ccc(-c3cc(NCCCN4CCCCC4)c4cnccc4n3)cc2s1)N1CCOCC1 [Morpholino(6-(4-(3-(piperidin-1-yl)propylamino)-1,6-naphthyridin-2-yl)benzo[d]thiazol-2-yl)methanone]
1000 to 20000	CCN(CC)C(=O)c1ccc(-c2cc(NC3CCN(C)C3)c3cnccc3n2)cc1 (centres unmarked) [N,N-Diethyl-4-(4-(1-methylpyrrolidin-3-ylamino)-1,6-naphthyridin-2-yl)benzamide]
